Source: PubChem BioAssay (NCI)
Values after ≈ are worked out from the molar mass of the structure shown.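 The compound was tested at five concentrations on cells cultured in 96-well plates, with a 48-hour exposure period. GI50 = concentration required for 50% inhibition of growth. TGI: concentration producing complete growth inhibition.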

What was measured:
Experiment in all cases: NCI anticancer screen, dose series, 48 h
[1] = tested on: 786-0 renal
[2] = tested on: A498 renal
[3] = tested on: A549 NSCLC
[4] = tested on: ACHN renal
[5] = tested on: CAKI-1 renal
[6] = tested on: CCRF-CEM leukemia
[7] = tested on: COLO 205 colon
[8] = tested on: DU-145 prostate
[9] = tested on: EKVX NSCLC
[10] = tested on: HCC-2998 colon
[11] = tested on: HCT-116 colon
[12] = tested on: HCT-15 colon
[13] = tested on: HL-60(TB) leukemia
[14] = tested on: HOP-62 NSCLC
[15] = tested on: HOP-92 NSCLC
[16] = tested on: IGROV1 ovarian
[17] = tested on: K-562 leukemia
[18] = tested on: KM12 colon
[19] = tested on: LOX IMVI melanoma
[20] = tested on: M14 melanoma
[21] = tested on: MALME-3M melanoma
[22] = tested on: MCF7 breast
[23] = tested on: MDA-MB-231 breast
[24] = tested on: MDA-MB-435
[25] = tested on: MDA-N
[26] = tested on: MOLT-4 leukemia
[27] = tested on: NCI-H226 lung
[28] = tested on: NCI-H23 lung
[29] = tested on: NCI-H522 lung
[30] = tested on: NCI/ADR-RES ovarian
[31] = tested on: OVCAR-3 ovarian
[32] = tested on: OVCAR-4 ovarian
[33] = tested on: OVCAR-5 ovarian
[34] = tested on: OVCAR-8 ovarian
[35] = tested on: PC-3 prostate
[36] = tested on: RPMI-8226 leukemia
[37] = tested on: RXF 393 renal
[38] = tested on: SF-295 CNS
[39] = tested on: SF-539 CNS
[40] = tested on: SK-MEL-2 melanoma
[41] = tested on: SK-MEL-28 melanoma
[42] = tested on: SK-MEL-5 melanoma
[43] = tested on: SK-OV-3 ovarian
[44] = tested on: SN12C renal
[45] = tested on: SNB-19 CNS
[46] = tested on: SNB-75 CNS
[47] = tested on: SW-620 colon
[48] = tested on: T-47D breast
[49] = tested on: TK-10 renal
[50] = tested on: U251 CNS
[51] = tested on: UACC-257 melanoma
[52] = tested on: UACC-62 melanoma
[53] = tested on: UO-31 renal
[54] = tested on: HT29 colon
[55] = tested on: HS 578T breast
[56] = tested on: NCI-H460 lung
[57] = tested on: SF-268 CNS
[58] = tested on: SR leukemia

Compound `COc1ccc(-n2c(=O)n(-c3ccccc3)c(=O)n2-c2ccc(OC)cc2)cc1` has a TGI [1] greater than 100 µM, a TGI [2] greater than 100 µM and a TGI [3] greater than 100 µM. It also gave a TGI [4] greater than 100 µM, a TGI [5] of 7.59 µM and a TGI [6] greater than 100 µM. For the same compound, the TGI [7] was greater than 100 µM, the TGI [8] was greater than 100 µM and the TGI [9] was greater than 100 µM. It also gave a TGI [10] greater than 100 µM, a TGI [11] greater than 100 µM and a TGI [12] greater than 100 µM. The TGI [13] was greater than 100 µM, the TGI [14] was greater than 100 µM and the TGI [15] was greater than 100 µM. For the same compound, the TGI [16] was greater than 100 µM, the TGI [17] was greater than 100 µM and the TGI [18] was greater than 100 µM. The TGI [19] was greater than 100 µM, the TGI [20] was greater than 100 µM and the TGI [21] was greater than 100 µM. The TGI [22] was greater than 100 µM, the TGI [23] was greater than 100 µM and the TGI [24] was greater than 100 µM. It also gave a TGI [25] greater than 100 µM, a TGI [26] greater than 100 µM and a TGI [27] greater than 100 µM. For the same compound, the TGI [28] was greater than 100 µM, the TGI [29] was greater than 100 µM and the TGI [30] was greater than 100 µM. It also gave a TGI [31] greater than 100 µM, a TGI [32] greater than 100 µM and a TGI [33] greater than 100 µM. The TGI [34] was greater than 100 µM, the TGI [35] was greater than 100 µM and the TGI [36] was greater than 100 µM. For the same compound, the TGI [37] was greater than 100 µM, the TGI [38] was greater than 100 µM and the TGI [39] was greater than 100 µM. The TGI [40] was greater than 100 µM, the TGI [41] was greater than 100 µM and the TGI [42] was greater than 100 µM. For the same compound, the TGI [43] was greater than 100 µM, the TGI [44] was greater than 100 µM and the TGI [45] was greater than 100 µM. For the same compound, the TGI [46] was greater than 100 µM, the TGI [47] was greater than 100 µM and the TGI [48] was greater than 100 µM. For the same compound, the TGI [49] was greater than 100 µM, the TGI [50] was greater than 100 µM and the TGI [51] was greater than 100 µM. It also gave a TGI [52] greater than 100 µM and a TGI [53] greater than 100 µM.
Compound `CC(=O)OCCOCN1C(=O)NC(=O)/C(=C/c2cccc(OCc3ccccc3)c2)C1=O` has a GI50 [1] of 62.1 µg/mL (≈ 142 µM), a GI50 [6] of 25 µg/mL (≈ 56.9 µM) and a TGI [6] of 58.1 µg/mL. It also gave a GI50 [8] of 66 µg/mL (≈ 151 µM), a GI50 [11] of 47.8 µg/mL (≈ 109 µM) and a GI50 [13] of 15 µg/mL (≈ 34.2 µM). It also gave a TGI [13] of 48.6 µg/mL, a GI50 [54] of 48 µg/mL (≈ 110 µM) and a GI50 [16] of 33.6 µg/mL (≈ 76.7 µM). The GI50 [17] was 34.9 µg/mL (≈ 79.7 µM), the GI50 [19] was 35.7 µg/mL (≈ 81.4 µM) and the GI50 [20] was 55.4 µg/mL (≈ 126 µM). It also gave a GI50 [22] of 42.5 µg/mL (≈ 97 µM), a GI50 [23] of 94.7 µg/mL (≈ 216 µM) and a GI50 [24] of 63.6 µg/mL (≈ 145 µM). For the same compound, the GI50 [25] was 29.4 µg/mL (≈ 67.1 µM), the GI50 [26] was 35.3 µg/mL (≈ 80.5 µM) and the GI50 [30] was 19.9 µg/mL (≈ 45.4 µM). The TGI [30] was 45.4 µg/mL, the GI50 [31] was 50.3 µg/mL (≈ 115 µM) and the GI50 [34] was 37.9 µg/mL (≈ 86.6 µM). It also gave a GI50 [36] of 29.1 µg/mL (≈ 66.4 µM), a TGI [36] of 73.2 µg/mL and a GI50 [39] of 23.4 µg/mL (≈ 53.3 µM). The TGI [39] was 79.1 µg/mL, the GI50 [42] was 33.5 µg/mL (≈ 76.3 µM) and the GI50 [44] was 66 µg/mL (≈ 151 µM). The GI50 [47] was 68.1 µg/mL (≈ 155 µM), the GI50 [48] was 73.9 µg/mL (≈ 169 µM) and the GI50 [50] was 55.7 µg/mL (≈ 127 µM). It also gave a GI50 [52] of 48.5 µg/mL (≈ 111 µM) and a GI50 [53] of 65.9 µg/mL (≈ 150 µM).
`COc1ccc(N2C(=O)C3c4[nH]c5ccc(F)cc5c4C4CCC(C(C)(C)C)CC4C3C2=O)cc1` (stereo not drawn) showed a TGI [2] greater than 10 µM, a TGI [3] greater than 10 µM and a TGI [4] greater than 10 µM. It also gave a TGI [5] greater than 10 µM, a TGI [6] greater than 10 µM and a TGI [7] greater than 10 µM. It also gave a TGI [8] greater than 10 µM, a TGI [9] greater than 10 µM and a TGI [10] greater than 10 µM. It also gave a TGI [11] greater than 10 µM, a TGI [12] greater than 10 µM and a TGI [13] greater than 10 µM. It also gave a TGI [14] greater than 10 µM, a TGI [55] greater than 10 µM and a TGI [54] greater than 10 µM. For the same compound, the TGI [16] was greater than 10 µM, the TGI [18] was greater than 10 µM and the TGI [20] was greater than 10 µM. For the same compound, the TGI [21] was greater than 10 µM, the TGI [22] was greater than 10 µM and the TGI [23] was greater than 10 µM. It also gave a TGI [24] greater than 10 µM, a TGI [25] greater than 10 µM and a TGI [26] greater than 10 µM. For the same compound, the TGI [27] was greater than 10 µM, the TGI [28] was greater than 10 µM and the TGI [56] was greater than 10 µM. The TGI [29] was greater than 10 µM, the TGI [30] was greater than 10 µM and the TGI [31] was greater than 10 µM. For the same compound, the TGI [32] was greater than 10 µM, the TGI [33] was greater than 10 µM and the TGI [34] was greater than 10 µM. For the same compound, the TGI [35] was greater than 10 µM, the TGI [36] was greater than 10 µM and the TGI [37] was greater than 10 µM. For the same compound, the TGI [57] was greater than 10 µM, the TGI [38] was greater than 10 µM and the TGI [39] was greater than 10 µM. It also gave a TGI [40] greater than 10 µM, a TGI [41] greater than 10 µM and a TGI [42] greater than 10 µM. For the same compound, the TGI [43] was greater than 10 µM, the TGI [44] was greater than 10 µM and the TGI [45] was greater than 10 µM. For the same compound, the TGI [46] was 4.87 µM, the TGI [58] was greater than 10 µM and the TGI [47] was greater than 10 µM. For the same compound, the TGI [48] was greater than 10 µM, the TGI [49] was greater than 10 µM and the TGI [50] was greater than 10 µM. It also gave a TGI [52] greater than 10 µM and a TGI [53] greater than 10 µM.
